Experimental data: patent US12077503B2, “Substituted cyclic amides and their use as herbicides” (FMC CORPORATION, priority 2015, dated 2024)

Key:
Assay type in all cases: in vivo
Kochia (Kochia scoparia) [1] = experiment: Test A preemergence
How it was run: (§1)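 In a loam soil and sand blend, planted seeds got a preemergence directed soil spray, and young plants at the one- to two-leaf stage, 2–10 cm high, got a postemergence application; ~10 d greenhouse hold; injury rated visually, 0 = none, 100 = complete control.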

[2] = test system: barnyardgrass (Echinochloa crus-galli); experiment: Test A preemergence
How it was run: as §1

[3] = test system: giant foxtail (Setaria faberii); experiment: Test A preemergence
How it was run: as §1

[4] = test system: pigweed (Amaranthus retroflexus); experiment: Test A preemergence
[5] = test system: ragweed (common ragweed, Ambrosia elatior); experiment: Test A preemergence
How it was run: as §1

[6] = test system: ryegrass, Italian (Italian ryegrass, Lolium multiflorum); experiment: Test A preemergence
How it was run: as §1

[7] = test system: Galium (catchweed bedstraw, Galium aparine); experiment: Test A postemergence; settings: postemergence, 0 to 100 scale (0 no effect, 100 complete control)
How it was run: as §1

Kochia (Kochia scoparia) [8] = experiment: Test A postemergence; settings: postemergence, 0 to 100 scale (0 no effect, 100 complete control)
How it was run: as §1

[9] = test system: barnyardgrass (Echinochloa crus-galli); experiment: Test A postemergence; settings: postemergence, 0 to 100 scale (0 no effect, 100 complete control)
How it was run: as §1

[10] = test system: blackgrass (Alopecurus myosuroides); experiment: Test A postemergence; settings: postemergence, 0 to 100 scale (0 no effect, 100 complete control)
How it was run: as §1

corn (Zea mays) = experiment: Test A postemergence; settings: postemergence, 0 to 100 scale (0 no effect, 100 complete control)
How it was run: as §1

[11] = test system: giant foxtail (Setaria faberii); experiment: Test A postemergence; settings: postemergence, 0 to 100 scale (0 no effect, 100 complete control)
How it was run: as §1

[12] = test system: pigweed (Amaranthus retroflexus); experiment: Test A postemergence; settings: postemergence, 0 to 100 scale (0 no effect, 100 complete control)
How it was run: as §1

[13] = test system: ragweed (common ragweed, Ambrosia elatior); experiment: Test A postemergence; settings: postemergence, 0 to 100 scale (0 no effect, 100 complete control)
How it was run: as §1

[14] = test system: ryegrass, Italian (Italian ryegrass, Lolium multiflorum); experiment: Test A postemergence; settings: postemergence, 0 to 100 scale (0 no effect, 100 complete control)
How it was run: as §1

[15] = test system: wheat (Triticum aestivum); experiment: Test A postemergence; settings: postemergence, 0 to 100 scale (0 no effect, 100 complete control)
How it was run: as §1

[16] = test system: barnyardgrass (Echinochloa crus-galli); experiment: Test B flooded paddy test; settings: Flood, 250 g ai/ha; 0 to 100 scale where 0 is no effect and 100 is complete control; 13 to 15 d
How it was run: (§2)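 2-leaf plants; pots flooded 3 cm over soil; cpd added to paddy water; depth held; greenhouse 13–15 d; visual rating vs controls, 0 = no effect, 100 = complete control.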

[17] = test system: ducksalad (Heteranthera limosa); experiment: Test B flooded paddy test; settings: Flood, 250 g ai/ha; 0 to 100 scale where 0 is no effect and 100 is complete control; 13 to 15 d
How it was run: as §2

rice (Oryra sativa) = experiment: Test B flooded paddy test; settings: Flood, 250 g ai/ha; 0 to 100 scale where 0 is no effect and 100 is complete control; 13 to 15 d
How it was run: as §2

[18] = test system: sedge, umbrella (small-flower umbrella sedge, Cyperus difformis); experiment: Test B flooded paddy test; settings: Flood, 250 g ai/ha; 0 to 100 scale where 0 is no effect and 100 is complete control; 13 to 15 d
How it was run: as §2

[19] = test system: barnyardgrass (Echinochloa crus-galli); experiment: Test C flooded paddy test; settings: Flood; for Plant response rating (scale of 0 to 100), Barnyardgrass: 0 is no effect, 100 is complete control
How it was run: (§3)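 Test compounds were dosed straight into the flood water of pots holding 2-leaf-stage plants, with water kept 3 cm above the soil. Greenhouse plants were scored visually against controls after 13 to 15 d, from 0 (no effect) to 100 (complete control).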

[20] = test system: ducksalad (Heteranthera limosa); experiment: Test C flooded paddy test; settings: Flood; for Plant response rating (scale of 0 to 100), Ducksalad: 0 is no effect, 100 is complete control
How it was run: as §3

rice (Oryza sativa) = experiment: Test C flooded paddy test; settings: Flood; for Plant response rating (scale of 0 to 100), Rice: 0 is no effect, 100 is complete control
How it was run: as §3

[21] = test system: sedge, umbrella (small-flower umbrella sedge, Cyperus difformis); experiment: Test C flooded paddy test; settings: Flood; for Plant response rating (scale of 0 to 100), Sedge, Umbrella: 0 is no effect, 100 is complete control
How it was run: as §3

[22] = 125 g ai/ha, Preemergence, visual injury after approximately 10 d, 0 to 100 scale where 0 is no effect and 100 is complete control
[23] = 500 g ai/ha, preemergence, 0 to 100 scale, 0 = no effect, 100 = complete control
[24] = 125 g ai/ha, visual rating after approx. 10 d
[25] = 500 g ai/ha, visual injury, approx. 10 d
[26] = 31 g ai/ha, scale 0 to 100 (0 no effect, 100 complete control), 13 to 15 d

Cc1ccc(C2CN(C)C(=O)C2C(=O)Nc2ccc(F)cc2F)cc1 (stereo not shown) [Compound 664]
Plant response rating, Kochia (Kochia (Kochia scoparia) [1]; [22]): 70 | Plant response rating, Kochia (Kochia (Kochia scoparia) [1]; [23]): 70 | Plant response rating, Barnyardgrass [2, 22]: 90 | Plant response rating, Barnyardgrass [2, 23]: 90 | Plant response rating, Foxtail, Giant [3, 22]: 90 | Plant response rating, Foxtail, Giant [3, 23]: 100 | Plant response rating, Pigweed [4, 22]: 60 | Plant response rating, Pigweed [4, 23]: 60 | Plant response rating, Ragweed [5, 22]: 20 | Plant response rating, Ragweed [5, 23]: 80 | Plant response rating, Ryegrass, Italian [6, 22]: 20 | Plant response rating, Ryegrass, Italian [6, 23]: 80 | Plant response rating, Galium [7, 24]: 50 | Plant response rating, Galium [7, 25]: 60 | Plant response rating, Kochia (Kochia (Kochia scoparia) [8]; [24]): 60 | Plant response rating, Kochia (Kochia (Kochia scoparia) [8]; [25]): 70 | Plant response rating, Barnyardgrass [9, 24]: 90 | Plant response rating, Barnyardgrass [9, 25]: 90 | Plant response rating, Blackgrass [10, 24]: 50 | Plant response rating, Blackgrass [10, 25]: 60 | Plant response rating, Corn (corn (Zea mays); [24]): 50 | Plant response rating, Corn (corn (Zea mays); [25]): 90 | Plant response rating, Foxtail, Giant [11, 24]: 90 | Plant response rating, Foxtail, Giant [11, 25]: 90 | Plant response rating, Pigweed [12, 24]: 20 | Plant response rating, Pigweed [12, 25]: 20 | Plant response rating, Ragweed [13, 24]: 10 | Plant response rating, Ragweed [13, 25]: 20 | Plant response rating, Ryegrass, Italian [14, 24]: 30 | Plant response rating, Ryegrass, Italian [14, 25]: 70 | Plant response rating, Wheat [15, 24]: 50 | Plant response rating, Wheat [15, 25]: 70 | Plant response rating, Barnyardgrass [16]: 85 | Plant response rating, Ducksalad [17]: 100 | Plant response rating, Rice (rice (Oryra sativa)): 0 | Plant response rating, Sedge, Umbrella [18]: 0 | Plant response rating, Barnyardgrass [19, 26]: 0 | Plant response rating (scale of 0 to 100), Barnyardgrass ([19]; 62 g ai/ha): 65 | Plant response rating (scale of 0 to 100), Barnyardgrass ([19]; 125 g ai/ha): 70 | Plant response rating (scale of 0 to 100), Barnyardgrass ([19]; 250 g ai/ha): 70 | Plant response rating, Ducksalad [20, 26]: 45 | Plant response rating (scale of 0 to 100), Ducksalad ([20]; 62 g ai/ha): 70 | Plant response rating (scale of 0 to 100), Ducksalad ([20]; 125 g ai/ha): 85 | Plant response rating (scale of 0 to 100), Ducksalad ([20]; 250 g ai/ha): 100 | Plant response rating, Rice (rice (Oryza sativa); [26]): 0 | Plant response rating (scale of 0 to 100), Rice (rice (Oryza sativa); 62 g ai/ha): 0 | Plant response rating (scale of 0 to 100), Rice (rice (Oryza sativa); 125 g ai/ha): 0 | Plant response rating (scale of 0 to 100), Rice (rice (Oryza sativa); 250 g ai/ha): 0 | Plant response rating, Sedge, Umbrella [21, 26]: 0 | Plant response rating (scale of 0 to 100), Sedge, Umbrella ([21]; 62 g ai/ha): 0 | Plant response rating (scale of 0 to 100), Sedge, Umbrella ([21]; 125 g ai/ha): 0 | Plant response rating (scale of 0 to 100), Sedge, Umbrella ([21]; 250 g ai/ha): 0
